Measurements as given in patent US20260232578A1, “COMPOSITIONS AND METHODS FOR TRANSMUCOSAL ABSORPTION” (Tonix Pharma Limited, priority 2012, published 2026).
Structures can show the parent of a compound that is named as a salt.

How the values were obtained:
[1] = Stress stability at 50° C., purity profile; assay type: physicochemical
Protocol: In order to evaluate the stability of the formulations described above, prototype A, B, C, D were maintained under the 50° C. stress condition for 30 days.

[2] = biological target: T1, adrenergic alpha-2A receptor (Alpha2A) (Homo sapiens, UniProt P08913); assay: Equilibrium receptor binding, recombinant human receptor
T1 construct: expressed in transfected cells
T1 sequence (P08913 1-465): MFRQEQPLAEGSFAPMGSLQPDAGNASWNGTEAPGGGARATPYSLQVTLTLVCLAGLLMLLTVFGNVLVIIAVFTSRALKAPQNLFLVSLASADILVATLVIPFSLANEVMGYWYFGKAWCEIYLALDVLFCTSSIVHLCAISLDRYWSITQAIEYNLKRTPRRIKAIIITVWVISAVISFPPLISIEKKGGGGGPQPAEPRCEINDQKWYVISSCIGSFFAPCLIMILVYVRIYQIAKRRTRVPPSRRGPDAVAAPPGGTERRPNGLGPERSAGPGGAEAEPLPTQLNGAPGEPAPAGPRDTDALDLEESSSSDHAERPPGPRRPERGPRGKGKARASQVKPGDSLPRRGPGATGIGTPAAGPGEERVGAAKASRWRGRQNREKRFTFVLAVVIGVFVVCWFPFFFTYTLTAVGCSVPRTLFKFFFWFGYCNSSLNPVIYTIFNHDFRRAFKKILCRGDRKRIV

[3] = biological target: T2, adrenergic alpha-2C receptor (Alpha2C) (Homo sapiens, UniProt P18825); assay: as above
T2 construct: expressed in transfected cells
T2 sequence (P18825 1-462): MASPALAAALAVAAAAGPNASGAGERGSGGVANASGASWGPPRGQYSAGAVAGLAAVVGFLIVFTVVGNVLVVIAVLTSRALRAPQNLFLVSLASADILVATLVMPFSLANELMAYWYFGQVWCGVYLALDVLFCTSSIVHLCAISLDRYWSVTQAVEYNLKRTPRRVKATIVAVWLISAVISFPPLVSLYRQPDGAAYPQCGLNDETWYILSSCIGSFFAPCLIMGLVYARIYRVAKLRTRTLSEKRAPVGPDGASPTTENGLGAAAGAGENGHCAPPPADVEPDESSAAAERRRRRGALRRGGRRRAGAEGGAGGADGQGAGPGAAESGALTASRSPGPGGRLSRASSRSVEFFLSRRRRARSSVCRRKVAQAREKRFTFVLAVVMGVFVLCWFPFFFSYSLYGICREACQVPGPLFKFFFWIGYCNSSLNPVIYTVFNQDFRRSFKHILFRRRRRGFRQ

5-HT1A receptor = biological target: T3, 5-HT1A receptor (Homo sapiens, UniProt P08908); assay: as above
T3 construct: expressed in transfected cells
T3 sequence (P08908 1-422): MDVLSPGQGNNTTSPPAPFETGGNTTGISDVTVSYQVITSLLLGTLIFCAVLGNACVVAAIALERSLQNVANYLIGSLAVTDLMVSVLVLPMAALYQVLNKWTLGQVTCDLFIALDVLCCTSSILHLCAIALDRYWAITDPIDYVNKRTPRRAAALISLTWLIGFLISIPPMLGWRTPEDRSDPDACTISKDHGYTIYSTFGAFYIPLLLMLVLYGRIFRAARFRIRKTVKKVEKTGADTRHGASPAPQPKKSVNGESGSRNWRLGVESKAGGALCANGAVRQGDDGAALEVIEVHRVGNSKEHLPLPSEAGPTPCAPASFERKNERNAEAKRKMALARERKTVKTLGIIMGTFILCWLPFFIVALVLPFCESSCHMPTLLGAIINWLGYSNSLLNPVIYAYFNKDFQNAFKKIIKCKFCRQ

5-HT2C receptor = biological target: T4, 5-HT2C receptor (Homo sapiens, UniProt P28335); assay: as above
T4 construct: expressed in transfected cells
T4 sequence (P28335 33-458): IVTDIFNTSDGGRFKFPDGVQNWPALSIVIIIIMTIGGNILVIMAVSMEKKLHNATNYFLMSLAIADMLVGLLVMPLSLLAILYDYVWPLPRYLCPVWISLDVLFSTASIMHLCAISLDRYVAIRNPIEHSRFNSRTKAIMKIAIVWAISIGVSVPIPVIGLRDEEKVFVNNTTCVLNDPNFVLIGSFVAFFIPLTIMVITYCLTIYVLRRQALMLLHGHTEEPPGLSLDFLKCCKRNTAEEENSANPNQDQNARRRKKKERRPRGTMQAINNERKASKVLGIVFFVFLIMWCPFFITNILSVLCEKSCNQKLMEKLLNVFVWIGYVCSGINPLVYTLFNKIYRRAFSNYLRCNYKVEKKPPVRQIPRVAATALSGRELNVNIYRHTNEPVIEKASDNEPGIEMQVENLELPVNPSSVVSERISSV

muscarinic M2 receptor = muscarinic M2 receptor (Homo sapiens, UniProt P08172); assay: as above; parameters: expressed in transfected cells
muscarinic M2 receptor, sequence (P08172 whole entry): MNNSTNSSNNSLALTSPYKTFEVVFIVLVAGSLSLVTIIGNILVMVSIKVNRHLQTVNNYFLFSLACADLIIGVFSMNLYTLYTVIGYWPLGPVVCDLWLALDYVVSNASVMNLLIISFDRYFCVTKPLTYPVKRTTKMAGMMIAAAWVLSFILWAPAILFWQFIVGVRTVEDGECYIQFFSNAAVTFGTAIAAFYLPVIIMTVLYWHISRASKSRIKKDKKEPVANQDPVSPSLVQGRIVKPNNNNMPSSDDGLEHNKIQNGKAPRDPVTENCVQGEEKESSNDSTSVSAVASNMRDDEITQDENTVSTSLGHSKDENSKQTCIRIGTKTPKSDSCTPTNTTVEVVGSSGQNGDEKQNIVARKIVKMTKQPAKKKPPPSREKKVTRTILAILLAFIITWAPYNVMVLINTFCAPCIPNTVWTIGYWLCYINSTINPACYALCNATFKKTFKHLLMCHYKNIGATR

[4] = T0, samples stored at room temperature
[5] = T15days, active ingredient without excipients

Compound | Impurity 1 (Dibenzosuberenone, RT = about 56′) [1, 4] | Impurity 2 (Carbinole, RT = about 6′) [1, 4] | Impurity 4 (Amitriptyline, RT = about 15′) [1, 4] | Total Impurities [1, 4] | Unknown 1 (RT = about 16′) [1, 4] | Unknown 2 (RT = about 17.5′) [1, 4] | Unknown 3 (RT = about 7.5′) [1, 4] | Impurity 1 (Dibenzosuberenone, RT = about 56′) [1, 5] | Impurity 2 (Carbinole, RT = about 6′) [1, 5] | Impurity 4 (Amitriptyline, RT = about 15′) [1, 5] | Total Impurities [1, 5] | Unknown 1 (RT = about 16′) [1, 5] | Unknown 2 (RT = about 17.5′) [1, 5] | Unknown 3 (RT = about 7.5′) [1, 5] | Ki [2] | Ki [3] | Ki (5-HT1A receptor) | Ki (5-HT2C receptor) | Ki (muscarinic M2 receptor)
CN(C)CCC=C1c2ccccc2C=Cc2ccccc21 [Cyclobenzaprine HCl (Dipharma)] | Absent | Absent | Absent | 0.005% | 0.005% | Absent | 0.028% | Absent | Absent | Absent | 0.003% | Absent | 0.003% | 0.008% | – | – | – | – | –
CN(C)CCC=C1c2ccccc2C=Cc2ccccc21 [Cyclobenzaprine HCl (Sifavitor)] | Absent | Absent | Absent | 0.020% | 0.020% | Absent | Absent | Absent | Absent | Absent | 0.019% | Absent | 0.019% | Absent | – | – | – | – | –
CN(C)CCC=C1c2ccccc2CCc2ccccc21 [amitriptyline, 3-(10,11-dihydro-5H-dibenzo [a,d]cycloheptene-5-ylidene)-N,N-dimethyl-1-propanamine] | – | – | – | – | – | – | – | – | – | – | – | – | – | – | 0.25 µM | 0.014 µM | 0.22 µM | 0.028 µM | –
CNCCC=C1c2ccccc2CCc2ccccc21 [nortriptyline] | – | – | – | – | – | – | – | – | – | – | – | – | – | – | – | – | 0.1 µM | – | 0.14 µM
